Laboratory results published in patent US10308643B2, “Heterocyclic compound” (Takeda Pharmaceutical Company Limited, priority 2015, dated 2019).

How the values were obtained:
Assay type in all cases: biochemical
[1] = molecular target: T1, HDAC6 enzyme (Homo sapiens, UniProt Q9UBN7); experiment: HDAC1/6 Enzyme Inhibitory Assay (HDAC-Glo I/II Assay kit), HDAC6; details: 1 μM test compound, wells without enzyme = 100% inhibition; for inhibition at 1 µM: read-out: HDAC6 inhibitory rate (%) (1 μM)
T1 construct: transducing full length HDAC1 and HDAC6 genes into Sf-9 insect cells; GST; purchased SignalChem; host or cells: Sf-9 insect cells
T1 sequence (Q9UBN7 1-1215): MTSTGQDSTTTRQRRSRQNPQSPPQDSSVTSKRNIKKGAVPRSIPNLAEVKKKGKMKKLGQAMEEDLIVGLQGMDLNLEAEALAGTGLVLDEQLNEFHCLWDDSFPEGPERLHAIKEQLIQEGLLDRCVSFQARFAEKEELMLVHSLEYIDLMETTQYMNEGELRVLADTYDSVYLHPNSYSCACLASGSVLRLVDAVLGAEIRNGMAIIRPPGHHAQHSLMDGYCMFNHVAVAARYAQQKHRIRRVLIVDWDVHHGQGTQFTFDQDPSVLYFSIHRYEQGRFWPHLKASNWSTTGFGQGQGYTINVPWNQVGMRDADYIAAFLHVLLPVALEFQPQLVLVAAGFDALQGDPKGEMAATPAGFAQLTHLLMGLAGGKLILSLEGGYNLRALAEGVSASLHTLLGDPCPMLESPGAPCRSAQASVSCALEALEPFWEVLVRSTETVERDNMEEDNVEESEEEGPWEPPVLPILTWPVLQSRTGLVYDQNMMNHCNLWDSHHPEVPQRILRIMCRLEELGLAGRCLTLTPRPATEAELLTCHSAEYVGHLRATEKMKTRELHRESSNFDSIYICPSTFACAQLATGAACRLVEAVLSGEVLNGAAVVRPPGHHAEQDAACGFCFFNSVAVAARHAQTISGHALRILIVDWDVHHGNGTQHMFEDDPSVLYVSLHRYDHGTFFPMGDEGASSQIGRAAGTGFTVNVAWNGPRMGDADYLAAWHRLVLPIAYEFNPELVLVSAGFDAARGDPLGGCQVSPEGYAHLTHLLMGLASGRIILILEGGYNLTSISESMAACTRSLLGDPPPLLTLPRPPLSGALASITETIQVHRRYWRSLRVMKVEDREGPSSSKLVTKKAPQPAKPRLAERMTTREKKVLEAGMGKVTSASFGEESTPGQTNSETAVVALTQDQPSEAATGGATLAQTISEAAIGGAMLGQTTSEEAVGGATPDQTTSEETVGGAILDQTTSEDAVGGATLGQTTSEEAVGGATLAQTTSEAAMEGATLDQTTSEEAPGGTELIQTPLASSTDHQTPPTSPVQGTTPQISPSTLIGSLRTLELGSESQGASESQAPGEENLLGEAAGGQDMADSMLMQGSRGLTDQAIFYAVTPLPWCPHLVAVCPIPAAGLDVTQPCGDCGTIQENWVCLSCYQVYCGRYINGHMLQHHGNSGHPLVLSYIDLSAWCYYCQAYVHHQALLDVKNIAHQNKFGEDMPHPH
Procedure, shortened: (§1)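 Luminescence readout (HDAC-Glo I/II) after 20 min RT reaction of GST-purified full-length HDAC1 or HDAC6 (Sf-9 expressed) with substrate-developer; enzyme and compound preincubated 60 min RT; buffer 24 mM Tris-HCl pH 7.5, 0.6 mM glutathione, 0.01% Tween-20; no-enzyme wells = 100% inhibition.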

[2] = molecular target: T2, HDAC9 enzyme (Homo sapiens, UniProt Q9UKV0); experiment: HDAC9 Enzyme Inhibitory Assay (HDAC-Glo class IIa); details: 1 μM test compound, wells without enzyme = 100% inhibition; for inhibition at 1 µM: read-out: HDAC9 inhibitory rate (%) (1 μM)
T2 construct: transducing full length HDAC9 gene into Sf-9 insect cells; made in house; host or cells: Sf-9 insect cells
Procedure, shortened: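 Luminescent HDAC-Glo class IIa readout after a 20 min room-temperature reaction; relative inhibition referenced to enzyme-free wells as 100%. Test compound first preincubated 60 min with Sf-9-expressed, Ni-NTA-purified full-length HDAC9 in pH 7.5 Tris buffer containing 135 mM NaCl, 0.6 mM glutathione and 0.01% Tween-20.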

[3] = molecular target: T3, HDAC1 enzyme (Homo sapiens, UniProt Q13547); experiment: HDAC1/6 Enzyme Inhibitory Assay (HDAC-Glo I/II Assay kit), HDAC1; details: 1 μM test compound, wells without enzyme = 100% inhibition; for inhibition at 1 µM: read-out: HDAC1 inhibitory rate (%) (1 μM)
T3 construct: transducing full length HDAC1 and HDAC6 genes into Sf-9 insect cells; GST; purchased SignalChem; host or cells: Sf-9 insect cells
Procedure, shortened: as §1

T2 sequence (Q9UKV0 whole entry, species assumed): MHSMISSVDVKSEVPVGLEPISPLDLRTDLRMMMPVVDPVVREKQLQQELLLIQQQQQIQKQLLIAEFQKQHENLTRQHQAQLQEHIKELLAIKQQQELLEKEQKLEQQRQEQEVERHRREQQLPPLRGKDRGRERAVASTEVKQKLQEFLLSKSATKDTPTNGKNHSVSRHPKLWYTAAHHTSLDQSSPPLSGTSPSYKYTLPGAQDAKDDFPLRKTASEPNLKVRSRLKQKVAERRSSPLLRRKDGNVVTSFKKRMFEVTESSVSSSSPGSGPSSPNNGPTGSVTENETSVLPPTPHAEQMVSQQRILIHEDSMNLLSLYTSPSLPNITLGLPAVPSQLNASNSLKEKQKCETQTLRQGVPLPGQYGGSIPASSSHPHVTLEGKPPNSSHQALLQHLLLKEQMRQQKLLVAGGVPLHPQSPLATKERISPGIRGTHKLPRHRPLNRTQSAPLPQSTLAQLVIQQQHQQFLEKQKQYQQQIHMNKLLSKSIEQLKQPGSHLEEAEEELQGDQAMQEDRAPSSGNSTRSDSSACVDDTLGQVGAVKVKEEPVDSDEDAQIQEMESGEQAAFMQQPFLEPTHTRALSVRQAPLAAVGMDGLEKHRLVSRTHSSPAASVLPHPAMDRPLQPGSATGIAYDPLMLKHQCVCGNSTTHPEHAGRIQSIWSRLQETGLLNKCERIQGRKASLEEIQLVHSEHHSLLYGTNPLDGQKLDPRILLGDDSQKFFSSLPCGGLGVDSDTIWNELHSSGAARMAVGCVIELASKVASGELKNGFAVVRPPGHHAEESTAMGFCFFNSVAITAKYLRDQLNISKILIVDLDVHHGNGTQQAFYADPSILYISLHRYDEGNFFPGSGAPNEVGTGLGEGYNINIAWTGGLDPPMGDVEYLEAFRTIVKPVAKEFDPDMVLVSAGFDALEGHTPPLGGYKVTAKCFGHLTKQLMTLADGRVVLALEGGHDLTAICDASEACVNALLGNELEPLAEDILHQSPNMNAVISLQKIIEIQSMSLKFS
T3 sequence (Q13547 whole entry): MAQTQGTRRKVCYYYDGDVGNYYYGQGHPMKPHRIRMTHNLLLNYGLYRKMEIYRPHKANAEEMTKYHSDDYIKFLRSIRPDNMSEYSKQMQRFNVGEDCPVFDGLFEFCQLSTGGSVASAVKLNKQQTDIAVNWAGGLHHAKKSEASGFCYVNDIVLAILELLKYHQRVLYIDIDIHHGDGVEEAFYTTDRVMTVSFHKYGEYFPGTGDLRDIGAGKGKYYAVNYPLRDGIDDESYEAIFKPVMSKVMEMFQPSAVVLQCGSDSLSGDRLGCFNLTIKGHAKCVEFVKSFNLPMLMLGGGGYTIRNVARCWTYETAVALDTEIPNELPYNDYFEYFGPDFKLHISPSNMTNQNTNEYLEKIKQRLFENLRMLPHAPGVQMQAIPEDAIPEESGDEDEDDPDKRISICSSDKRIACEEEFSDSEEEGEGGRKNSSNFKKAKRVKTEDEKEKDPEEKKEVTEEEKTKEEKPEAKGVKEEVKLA

inhibition at 1 µM [1] [%] | inhibition at 1 µM [2] [%] | inhibition at 1 µM [3] [%] | HDAC6 inhibitory rate (%) (1 μM) [1] | HDAC9 inhibitory rate (%) (1 μM) ([2]; 1 µM) | HDAC1 inhibitory rate (%) (1 μM) ([3]; 1 µM) | Compound
99 | 59 | 13 |  |  |  | O=C(N[C@H]1CCOC[C@@H]1N1Cc2ccc(-c3noc(C(F)(F)F)n3)cc2C1=O)[C@H]1CC1(F)F [Example 202, (1R)-2,2-difluoro-N-((3R,4S)-3-(1-oxo-6-(5-(trifluoromethyl)-1,2,4-oxadiazol-3-yl)-1,3-dihydro-2H-isoindol-2-yl)tetrahydro-2H-pyran-4-yl)cyclopropanecarboxamide]
95 | 66 | 26 |  |  |  | CC(C)(C)OC(=O)N[C@@H]1CCCC[C@@H]1N1Cc2ccc(-c3noc(C(F)(F)F)n3)cc2C1=O (relative stereo) [Example 198, tert-butyl (cis-2-(1-oxo-6-(5-(trifluoromethyl)-1,2,4-oxadiazol-3-yl)-1,3-dihydro-2H-isoindol-2-yl)cyclohexyl)carbamate]
40 | 58 | -5 |  |  |  | CC(C)(C)OC(=O)N1CC[C@@H](N2Cc3cc(-c4noc(C(F)(F)F)n4)ccc3C2=O)[C@H](c2ccccc2)C1 (relative stereo) [Example 135, tert-butyl-trans-4-(1-oxo-5-(5-(trifluoromethyl)-1,2,4-oxadiazol-3-yl)-1,3-dihydro-2H-isoindol-2-yl)-3-phenylpiperidine-1-carboxylate]
35 | 42 | 16 |  |  |  | CC1(C(=O)N[C@@H]2CCC[C@H]2N2Cc3ccc(-c4noc(C(F)(F)F)n4)cc3C2=O)COC1 [Example 151, 3-methyl-N-((1R,2R)-2-(1-oxo-6-(5-(trifluoromethyl)-1,2,4-oxadiazol-3-yl)-1,3-dihydro-2H-isoindol-2-yl)cyclopentyl)oxetane-3-carboxamide]
100 | 36 | 12 |  |  |  | CC(C)N(C(=O)N[C@@H]1CCCC[C@H]1N1Cc2ccc(-c3noc(C(F)(F)F)n3)cc2C1=O)C(C)C [Example 166, 1,1-diisopropyl-3-((1R,2R)-2-(1-oxo-6-(5-(trifluoromethyl)-1,2,4-oxadiazol-3-yl)-1,3-dihydro-2H-isoindol-2-yl)cyclohexyl)urea]
99 | 34 | 4 |  |  |  | O=C(N[C@@H]1CCCC[C@H]1N1Cc2ccc(-c3noc(C(F)(F)F)n3)cc2C1=O)N1CCCC1 [Example 158, N-((1R,2R)-2-(1-oxo-6-(5-(trifluoromethyl)-1,2,4-oxadiazol-3-yl)-1,3-dihydro-2H-isoindol-2-yl)cyclohexyl)pyrrolidine-1-carboxamide]

Continued, compound first:

Compound | inhibition at 1 µM [1] [%] | inhibition at 1 µM [2] [%] | inhibition at 1 µM [3] [%] | HDAC6 inhibitory rate (%) (1 μM) [1] | HDAC9 inhibitory rate (%) (1 μM) ([2]; 1 µM) | HDAC1 inhibitory rate (%) (1 μM) ([3]; 1 µM)
O=C(N[C@@H]1CCCC[C@H]1N1Cc2ccc(-c3noc(C(F)(F)F)n3)cc2C1=O)N1CC2CC(C1)O2 [Example 164, N-((1R,2R)-2-(1-oxo-6-(5-(trifiuoromethyl)-1,2,4-oxadiazol-3-yl)-1,3-dihydro-2H-isoindol-2-yl)cyclohexyl)-6-oxa-3-azabicyclo[3.1.1]heptane-3-carboxamide] | 97 | 18 | 1 |  |  | 
O=C(c1ccccc1)N1CCCC(N2Cc3ncc(-c4noc(C(F)(F)F)n4)cc3C2=O)C1 (stereo not drawn) [Example 40, 6-(1-benzoylpiperidin-3-yl)-3-(5-(trifluoromethyl)-1,2,4-oxadiazol-3-yl)-6,7-dihydro-5H-pyrrolo[3,4-b]pyridin-5-one] | 95 | 97 | 56 |  |  | 
O=C1c2cc(-c3noc(C(F)(F)F)n3)ccc2CN1[C@@H]1CCNC[C@H]1c1ccc(Cl)c(F)c1 (relative stereo) [Example 52, 2-(trans-3-(4-chloro-3-fluorophenyl)piperidin-4-yl)-6-(5-(trifluoromethyl)-1,2,4-oxadiazol-3-yl)isoindolin-1-one] | 97 | 99 | 97 |  |  | 
CC(C)(C)OC(=O)N[C@@H]1CCCC[C@H]1N1Cc2ccc(-c3noc(C(F)(F)F)n3)cc2C1=O [Example 26, tert-butyl ((1R,2R)-2-(1-oxo-6-(5-(trifluoromethyl)-1,2,4-oxadiazol-3-yl)-1,3-dihydro-2H-isoindol-2-yl)cyclohexyl)carbamate] | 98 | 47 | 11 |  |  | 
O=C(N[C@@H]1CCCC[C@H]1N1Cc2ccc(-c3noc(C(F)(F)F)n3)cc2C1=O)C1CC1 [Example 32, N-((1R,2R)-2-(1-oxo-6-(5-(trifluoromethyl)-1,2,4-oxadiazol-3-yl)-1,3-dihydro-2H-isoindol-2-yl)cyclohexyl)cyclopropanecarboxamide] | 99 | 52 | 5 |  |  | 
CC1(C(=O)N[C@@H]2CCCC[C@H]2N2Cc3ccc(-c4noc(C(F)(F)F)n4)cc3C2=O)CC1(F)F (stereo partly drawn) [Example 111, 2,2-difluoro-1-methyl-N-((1R,2R)-2-(1-oxo-6-(5-(trifluoromethyl)-1,2,4-oxadiazol-3-yl)-1,3-dihydro-2H-isoindol-2-yl)cyclohexyl) cyclopropanecarboxamide] | 99 | 69 | 14 |  |  | 
CC(=O)N1C[C@@H](N2Cc3ccc(-c4noc(C(F)(F)F)n4)cc3C2=O)[C@H](c2ccccc2)C1 (relative stereo) [Example 4, trans-2-(1-acetyl-4-phenylpyrrolidin-3-yl)-6-(5-(trifluoromethyl)-1,2,4-oxadiazol-3-yl)isoindolin-1-one] | 99 | 96 | 69 |  |  | 
N#Cc1ccccc1C(=O)N[C@@H]1CCCC[C@H]1N1Cc2ccc(-c3noc(C(F)(F)F)n3)cc2C1=O [Example 106, 2-cyano-N-((1R,2R)-2-(1-oxo-6-(5-(trifluoromethyl)-1,2,4-oxadiazol-3-yl)-1,3-dihydro-2H-isoindol-2-yl)cyclohexyl)benzamide] | 101 | 88 | 58 |  |  | 
O=C1c2cc(-c3noc(C(F)(F)F)n3)ccc2CN1[C@@H]1CCOC[C@H]1c1ccccc1 (relative stereo) [Example 5, trans-2-(3-phenyltetrahydro-2H-pyran-4-yl)-6-(5-(trifluoromethyl)-1,2,4-oxadiazol-3-yl)isoindolin-1-one] |  |  |  | 99 | 95 | 78
CC(=O)N1CCC(N2Cc3ncc(-c4noc(C(F)(F)F)n4)cc3C2=O)CC1 [Example 38, 6-(1-acetylpiperidin-4-yl)-3-(5-(trifluoromethyl)-1,2,4-oxadiazol-3-yl)-6,7-dihydro-5H-pyrrolo[3,4-b]pyridin-5-one] | 90 | 82 | 25 |  |  | 
O=C(N[C@@H]1CCCC[C@H]1N1Cc2ccc(-c3noc(C(F)(F)F)n3)cc2C1=O)C1CC(F)(F)C1 [Example 125, 3,3-difluoro-N-((1R,2R)-2-(1-oxo-6-(5-(trifluoromethyl)-1,2,4-oxadiazol-3-yl)-1,3-dihydro-2H-isoindol-2-yl)cyclohexyl) cyclobutanecarboxamide] | 99 | 55 | 11 |  |  | 
